In patent US10167292B2, “Benzodiazepines as bromodomain inhibitors” (Catalyst Therapeutics Pty Ltd, priority 2015, dated 2019):

Tests used:
MV4; 11 = experiment: Cell proliferation assay (CellTiter-Glo), MV4;11; assay type: cell-based; conditions: Homo sapiens, MV4;11 cells, 72 h
Protocol: (§1) The cells were prepared in the required fashion (suspension or adherent). The cells were initially washed once in the culture medium that they would be finally treated in. Following this 10 ml of the test medium was added and the cells. The mixture was pipetted gently several times.
(§2) The cells were counted and then the volume was spun down to the volume necessary for the total number of cells needed. The cells were then resuspended in the appropriate test medium to the desired concentration. In general, the final concentration of non-adherent cells was 2×10^5 cells/ml i.e. 10,000 cells per 50 μ1. Once the desired concentration had been reached, 50 µl of the cells were added to the appropriate wells and the cells were incubated for 72 h at 37° C.
(§3) CellTiter-Glo Luminescent Assay (Kit G7571—See Promega's Instruction Manual for Additional Details):
(§4) Both reagents were pre-warmed to RT. The buffer was thawed in a 37° C. water bath until it had just completely thawed. It was then left on a bench at RT for at least 30 min.
(§5) Following this the substrate and buffer were mixed together. To ensure that the substrate was dissolved, the mixture was inverted several times.
(§6) The cell culture plates were removed from the incubator and were then allowed to adjust to RT for at least 30 min.
(§7) Afterwards 40 μL of the reagent was added to 100 μL of the culture medium. […] The plates were then incubated for 10 min on the bench. The luminescence could then be read using a luminescence plate reader.

BRD-3 (Domain 1) = BRD-3 (Domain 1) (Homo sapiens (Human), UniProt Q15059); experiment: AlphaScreen BRD binding assay, BRD-3 (Domain 1); conditions: acetyl-histone H4 peptide 2.5 nM, protein 80 nM
Protocol: (§8) Biological Characterization Assay Conditions Binding Assay
BRD binding and inhibition was assessed by measuring the interaction of biotinylated acetyl-histone H4 peptide (Anaspec #64989) with the BRD target protein utilising AlphaScreen® technology (Perkin Elmer). In a white 384-well low volume plate (Greiner #784076), 100 nL of compound series in DMSO (0.5% final concentration) was added to the BRD target protein (80 nM final). After 30 min incubation at RT, H4 peptide was added to a final concentration of 2.5 nM. AlphaScreen streptavidin donor beads and AlphaScreen nickel chelate acceptor beads were added to a final concentration of 10 ug/mL each and allowed to incubate in a darkened environment for 1 h at RT. Plates were read on an EnVision plate reader (Perkin Elmer) and IC50's calculated using a four parameter non-linear curve fit.
These conditions are identical for all BRDs screened except BRD2D2 which uses 160 nM protein and 1.25 nM peptide.

HL-60 = experiment: Cell proliferation assay (CellTiter-Glo), HL-60; assay type: cell-based; conditions: Homo sapiens, HL-60 cells, 72 h
Protocol: as §1, §2, §3, §4, §5, §6, §7

BRD-4 (Domain 1) = BRD-4 (Domain 1) (Homo sapiens (Human), UniProt O60885); experiment: AlphaScreen BRD binding assay, BRD-4 (Domain 1); conditions: acetyl-histone H4 peptide 2.5 nM, protein 80 nM
Protocol: as §8
(§9) AlphaScreen streptavidin donor beads and AlphaScreen nickel chelate acceptor beads were added to a final concentration of 10 ug/mL each and allowed to incubate in a darkened environment for 1 h at RT. Plates were read on an EnVision plate reader (Perkin Elmer) and IC50's calculated using a four parameter non-linear curve fit.

BRD-4 (Domain 2) = BRD-4 (Domain 2) (Homo sapiens (Human), UniProt O60885); experiment: AlphaScreen BRD binding assay, BRD-4 (Domain 2); conditions: acetyl-histone H4 peptide 2.5 nM, protein 80 nM
Protocol: as §8, §9

BRD-2 (Domain 1) = BRD-2 (Domain 1) (Homo sapiens (Human), UniProt P25440); experiment: AlphaScreen BRD binding assay, BRD-2 (Domain 1); conditions: acetyl-histone H4 peptide 2.5 nM, protein 80 nM
Protocol: as §8, §9

BRD-2 (Domain 2) = BRD-2 (Domain 2) (Homo sapiens (Human), UniProt P25440); experiment: AlphaScreen BRD binding assay, BRD-2 (Domain 2); conditions: 160 nM protein and 1.25 nM peptide
Protocol: as §8, §9

Sequence of BRD-2 (Domain 1) (P25440 74-180): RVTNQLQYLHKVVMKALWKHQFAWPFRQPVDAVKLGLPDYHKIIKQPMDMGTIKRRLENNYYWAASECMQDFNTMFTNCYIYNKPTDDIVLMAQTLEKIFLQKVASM
Sequence of BRD-3 (Domain 1) (Q15059 34-140): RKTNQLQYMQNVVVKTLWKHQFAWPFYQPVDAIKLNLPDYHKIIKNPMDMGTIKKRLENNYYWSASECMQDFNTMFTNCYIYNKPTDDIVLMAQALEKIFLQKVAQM
Sequence of BRD-2 (Domain 2) (P25440 344-453): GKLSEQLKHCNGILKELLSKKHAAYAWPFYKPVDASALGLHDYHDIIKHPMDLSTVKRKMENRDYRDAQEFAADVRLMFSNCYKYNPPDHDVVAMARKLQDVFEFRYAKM

## Cc1nnn2c1-c1ccc(C(=O)NC(C)c3ccccc3)cc1N(c1ccc(Cl)cc1)CC2 (stereo in doubt) [Example 35, 7-(4-chlorophenyl)-1-methyl-N—((R)-1-phenylethyl)-6,7-dihydro-5H-benzo[f][1,2,3]triazolo[1,5-d][1,4]diazepine-9-carboxamide]
MV4; 11
  IC50: < 1000 nM
BRD-3 (Domain 1)
  IC50: < 100 nM
HL-60
  IC50: < 1000 nM

## Cc1nnn2c1-c1ccc(C(=O)NC(C)c3ccccc3)cc1N(c1ccc(Cl)cc1)CC2 (stereo in doubt) [Example 39, 7-(4-chlorophenyl)-1-methyl-N—((S)-1-phenylethyl)-6,7-dihydro-5H-benzo[f][1,2,3]triazolo[1,5-d][1,4]diazepine-9-carboxamide]
MV4; 11
  IC50: < 1000 nM
BRD-3 (Domain 1)
  IC50: < 100 nM
HL-60
  IC50: < 1000 nM

## Cc1ccc(-c2ccc3c(c2)N(c2ccc(Cl)cc2)CCn2nnc(C)c2-3)cn1 [Example 7, 7-(4-Chlorophenyl)-1-methyl-9-(6-methylpyridin-3-yl)-6,7-dihydro-5H-benzo[f][1,2,3]triazolo[1,5-d][1,4]diazepine]
BRD-4 (Domain 1)
  IC50: < 100 nM
BRD-4 (Domain 2)
  IC50: < 100 nM
MV4; 11
  IC50: < 1000 nM
BRD-3 (Domain 1)
  IC50: < 100 nM
HL-60
  IC50: < 1000 nM

## Cc1nnn2c1-c1ccc(-c3ccc(N)nc3)cc1N(c1ccc(Cl)cc1)CC2 [Example 8, 5-(7-(4-Chlorophenyl)-1-methyl-6,7-dihydro-5H-benzo[f][1,2,3]triazolo[1,5-d][1,4]diazepin-9-yl)pyridin-2-amine]
BRD-4 (Domain 1)
  IC50: < 100 nM
BRD-4 (Domain 2)
  IC50: < 100 nM
MV4; 11
  IC50: < 1000 nM
BRD-3 (Domain 1)
  IC50: < 100 nM
HL-60
  IC50: < 1000 nM

## Cc1nnn2c1-c1ccc(-c3cc[nH]n3)cc1N(c1ccc(Cl)cc1)CC2 [Example 10, 7-(4-Chlorophenyl)-1-methyl-9-(1H-pyrazol-3-yl)-6,7-dihydro-5H-benzo[f][1,2,3]triazolo[1,5-d][1,4]diazepine]
BRD-4 (Domain 1)
  IC50: < 100 nM
BRD-4 (Domain 2)
  IC50: < 100 nM
MV4; 11
  IC50: < 1000 nM
BRD-3 (Domain 1)
  IC50: < 100 nM
HL-60
  IC50: < 1000 nM

## Cc1nnn2c1-c1ccc(C(=O)O)cc1N(c1ccc(Cl)cc1)CC2 [Example 32, 7-(4-chlorophenyl)-1-methyl-5,6-dihydrotriazolo[1,5-d][1,4]benzodiazepine-9-carboxylic acid]
BRD-2 (Domain 1)
  IC50: 100 to 1000 nM
MV4; 11
  IC50: < 1000 nM
BRD-2 (Domain 2)
  IC50: < 100 nM
BRD-3 (Domain 1)
  IC50: < 100 nM
HL-60
  IC50: > 5000 nM

## Cc1nnn2c1-c1ccc(C(=O)Nc3ccccc3)cc1N(c1ccc(Cl)cc1)CC2 [Example 36, 7-(4-chlorophenyl)-1-methyl-N-phenyl-6,7-dihydro-5H-benzo[f][1,2,3]triazolo[1,5-d][1,4]diazepine-9-carboxamide]
MV4; 11
  IC50: < 1000 nM
BRD-3 (Domain 1)
  IC50: < 100 nM
HL-60
  IC50: < 1000 nM

## Cc1nnn2c1-c1ccc(C(=O)NS(=O)(=O)c3ccccc3)cc1N(c1ccc(Cl)cc1)CC2 [Example 40, 7-(4-chlorophenyl)-1-methyl-N-(phenylsulfonyl)-6,7-dihydro-5H-benzo[f][1,2,3]triazolo[1,5-d][1,4]diazepine-9-carboxamide]
BRD-4 (Domain 1)
  IC50: < 100 nM
BRD-4 (Domain 2)
  IC50: < 100 nM
BRD-2 (Domain 1)
  IC50: < 100 nM
MV4; 11
  IC50: 1000 to 5000 nM
BRD-2 (Domain 2)
  IC50: < 100 nM
BRD-3 (Domain 1)
  IC50: < 100 nM
HL-60
  IC50: > 5000 nM

## Cc1nnn2c1-c1ccc(C(=O)N[C@@H](C)c3ccc(F)cc3)cc1N(c1ccccc1)CC2 [Example 43]
BRD-4 (Domain 1)
  IC50: < 100 nM
BRD-4 (Domain 2)
  IC50: < 100 nM
BRD-2 (Domain 1)
  IC50: < 100 nM
MV4; 11
  IC50: < 1000 nM
BRD-2 (Domain 2)
  IC50: < 100 nM
HL-60
  IC50: < 1000 nM

## Cc1nnn2c1-c1ccc(C(=O)NOCCO)cc1N(c1ccc(Cl)cc1)CC2 [Example 45, 7-(4-Chlorophenyl)-N-(2-hydroxyethoxy)-1-methyl-6,7-dihydro-5H-benzo[f][1,2,3]triazolo[1,5-d][1,4]diazepine-9-carboxamide]
BRD-4 (Domain 1)
  IC50: < 100 nM
BRD-4 (Domain 2)
  IC50: < 100 nM
BRD-2 (Domain 1)
  IC50: < 100 nM
MV4; 11
  IC50: < 1000 nM
BRD-2 (Domain 2)
  IC50: < 100 nM
HL-60
  IC50: < 1000 nM

## CONC(=O)c1ccc2c(c1)N(c1ccc(Cl)cc1)CCn1nnc(C)c1-2 [Example 46, 7-(4-chlorophenyl)-N-methoxy-1-methyl-6,7-dihydro-5H-benzo[f][1,2,3]triazolo[1,5-d][1,4]diazepine-9-carboxamide]
BRD-4 (Domain 1)
  IC50: < 100 nM
BRD-4 (Domain 2)
  IC50: < 100 nM
BRD-2 (Domain 1)
  IC50: < 100 nM
MV4; 11
  IC50: < 1000 nM
BRD-2 (Domain 2)
  IC50: < 100 nM
HL-60
  IC50: < 1000 nM
